# Data reported in US20260125357A1, “LACTATE ENHANCING COMPOUNDS AND USES THEREOF” (GLIAPHARM SA, priority 2022, published 2026).
# How the values were obtained:
# Format in all cases: in vivo, mouse
# [1] = tested on: old C57Bl/6J wild-type mice; assay: Morris Water Maze memory in old (16-month-old) wild-type mice; settings: 1 day after training
# Experimental: Adult male C57Bl/6J wild-type from 3 month of age (young adults) to 16 month of age (old adults) are used (Charles River). Animals are housed in groups of 3-5 in polypropylene cages (30×40×15 cm) with wire mesh top in a temperature (22±2° C.) and humidity (55±15%) controlled environment on a 12-hour light cycle (07.00-19.00 h lights on). The samples (Vehicle or compounds of the invention) are administered per os (gavage) in a solution made of water supplemented with 0.4% hydroxypropyl methylcellulose (HPMC) Methocel 4 KM (w/v) and 0.25% Tween-20 (v/v), as previously described (Thackaberry et al., 2010, Toxicol Sci., 117(2):485-92). Memory of young adults treated with Vehicle or Old adults treated with Vehicle or compound (1) at 10 mg/kg or 30 mg/kg is tested in the Morris Water Maze, as described below. Treatment is administered at each day of training, 30 minutes before the first training session. No treatment is administered during memory retention test.
# (§1) Morris Water Maze (MWM), a well-established spatial and contextual memory test, will be used. […] A number of parameters including the latency to find the platform, time spent around the platform, path efficiency, % time spent in each quadrant is recorded, using automated tracking software (Ethovision). The type of exploration (direct, random, scan of the area) is also recorded. […]
# [2] = tested on: mice injected with streptozotocin; assay: Morris Water Maze in streptozotocin ICV injection model of Alzheimer's disease; settings: 30 mg/kg, 1 Day after training, vs Veh
# Experimental: (§2) Craniotomies are performed on isoflurane-anesthetized mice for injections of Veh or streptozotocin in cerebral ventricles (coordinates: −0.5 mm (to bregma), lateral+/−1.0 mm (to midline), ventral −2.2 mm (to dura)) (Kelliny S. et al., Molecular Neurobiology, 2021). A solution composed of Veh (0.9% NaCl) or streptozotocin (5 mg/kg) prepared in 1 μl artificial cerebrospinal fluid solution (aCSF, 20 mM citrate buffer, pH 4.2) is injected in both cerebral ventricles using Hamilton micro syringe at a constant speed of 100-200 nl/min. After injection, skin of the skull is sutured, and mice is monitored closely and receives analgesic treatment for at least 4 days. After mice had fully recovered from surgery, memory tests including Morris Water Maze (MWM), Inhibitory Avoidance (IA) and Novel Object Recognition (NOR), as described below, are performed. […]
# as §1
# [3] = tested on: mice injected with streptozotocin; assay: Novel Object Recognition in streptozotocin ICV injection model of Alzheimer's disease; settings: 1 day after training, vs Veh
# Experimental: as §2
# Novel object recognition (NOR) is a well-established protocol to evaluate recognition memory in rodent models. […] During the acquisition period, time spent exploring and number of contacts with each object are recorded. […] The time of exploration and number of contacts with each object are recorded. The activity is recorded automatically using automated tracking software (Ethovision).
# C57Bl/6J wild-type mice = assay: Lactate and glucose biosensors, cerebral extracellular levels in freely moving mice; settings: per os, doses 10 to 30 mg/kg, 3 hours, AUC ratio vs vehicle
# Experimental: All experiments were carried out in strict accordance with the Swiss Federal Guidelines for Animal Experimentation and were approved by the Cantonal Veterinary Office for Animal Experimentation (Canton of Geneva, Switzerland). Adult male C57Bl/6J wild-type mice weighting 18-28 g (8 to 12 weeks of age) were used (Charles River Laboratories). Animals were housed in groups of 3-5 in polypropylene cages (30×40×15 cm) with wire mesh top in a temperature (22±2° C.) and humidity (55±15%) controlled environment on a 12-hour light cycle (07.00-19.00 h lights on), except after surgeries when animal were housed individually. The samples (Vehicle or compounds of the invention) were administered per os (gavage) in a solution made of water supplemented with 0.4% hydroxypropyl methylcellulose (HPMC) Methocel 4 KM (w/v) and 0.25% Tween-20 (v/v), as previously described (Thackaberry et al., 2010, Toxicol Sci., 117(2):485-92). Concentrations of the compounds tested ranged from 3 to 30 mg/kg.
# Cerebral extracellular levels of L-lactate and D-glucose were monitored in vivo using lactate and glucose biosensors (Pinnacle Technology), respectively, according to the manufacturer's instructions. Cannulae were surgically implanted in the medial prefrontal cortices (coordinates: −1.0 mm (to bregma), lateral+/−1.0 mm (to mideline), ventral −1.0 mm (to dura))) of isoflurane-anesthetized mice 5 to 7 days prior experiment. After surgery, mice were monitored closely and received analgesic treatment for at least 4 days. After mice had fully recovered from surgery, compounds of the invention of vehicle were administered per os as previously described and cerebral levels of extracellular lactate and glucose were dynamically recorded for 6 hours using biosensors. Mice were administered vehicle alone first, followed 3 hours later by vehicle or Compounds of the Invention. Concentrations of cerebral extracellular lactate and glucose were calculated from the biosensor electric signals using post-calibration values. […] Area Under the Curve (AUC) of lactate and glucose concentration curves were calculated using Graphad Prism and the ratio of AUC after drug over Vehicle administration was calculated. Extracellular concentrations of lactate and glucose were measured in real time in freely moving animals for 3 hours after administration of Vehicle or compounds (1) to (4) at doses ranging from 10 to 30 mg/kg (FIG. 5).
smiles,measurement,setting,value
"COc1cc2ccnc(Nc3ccc(S(C)(=O)=O)cc3)c2cc1OC [Compound 2, 6,7-dimethoxy-N-(4-methylsulfonylphenyl)isoquinolin-1-amine]",memory in the Morris Water Maze,[1]; 10 mg/kg per os,significant increase of memory
same,memory in the Morris Water Maze,[1]; 30 mg/kg per os,significant increase of memory
same,memory in the Morris Water Maze,[2],significantly higher
same,memory in the Novel object recognition,[3]; 10 mg/kg,significantly higher
same,memory in the Novel object recognition,[3]; 30 mg/kg,significantly higher
same,extracellular glucose levels in the brain,C57Bl/6J wild-type mice,significantly increases extracellular glucose levels
same,extracellular lactate levels in the brain,C57Bl/6J wild-type mice,significantly increases extracellular lactate levels
